The results in this text go back to PubChem BioAssay AID652225 (The Scripps Research Institute Molecular Screening Center, 2013).

The experiment has as its target Serine/threonine-protein phosphatase 5 (Homo sapiens) (UniProt P53041). The experiment is described as follows: human PP5c inhibitor potency, radiometric – biochemical, radiolabel, glycogen phosphorylase substrate, set 2, selectivity assay for PP1 inhibitor project, late-stage follow-up (AID 652225). The settings on record: purified PP5c, 32P-glycogen phosphorylase dephosphorylation, scintillation.

The source made the active and inactive calls.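 The calls were made as follows: active = compounds inhibiting PP5 with an IC50 below 50 µM; inactive = IC50 of 50 µM or more.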 Where only a bound is given, the exact number is not on record here.

Chain of Serine/threonine-protein phosphatase 5 (Homo sapiens) (P53041 whole entry, looked up): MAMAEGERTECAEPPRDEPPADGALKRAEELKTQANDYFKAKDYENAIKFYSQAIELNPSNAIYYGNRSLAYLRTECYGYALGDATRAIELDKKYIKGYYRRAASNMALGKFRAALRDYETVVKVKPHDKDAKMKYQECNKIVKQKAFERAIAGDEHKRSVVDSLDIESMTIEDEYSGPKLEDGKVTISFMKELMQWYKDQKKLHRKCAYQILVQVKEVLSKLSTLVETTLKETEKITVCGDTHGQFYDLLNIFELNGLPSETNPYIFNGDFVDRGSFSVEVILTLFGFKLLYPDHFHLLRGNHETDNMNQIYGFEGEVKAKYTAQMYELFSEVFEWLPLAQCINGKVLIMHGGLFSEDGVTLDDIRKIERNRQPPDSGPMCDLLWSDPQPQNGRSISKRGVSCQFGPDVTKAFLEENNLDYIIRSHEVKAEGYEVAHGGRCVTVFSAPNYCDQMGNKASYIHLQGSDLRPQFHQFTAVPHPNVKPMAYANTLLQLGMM

Regarding `CCn1c2ccccc2c2cc(NC(=O)COC(=O)c3ccc(NC(=O)CC#N)cc3)ccc21`, the IC50 is > 50 µM (inactive). As for `N#Cc1c(-c2ccc(Cl)cc2)cc(-c2cccs2)nc1SCC(=O)O`, the IC50 was > 50 µM (inactive). The result for `COc1ccc(NC(=O)C2C3CCC(O3)C2C(=O)O)c(OC)c1` (stereo not given) reads 4.16 µM; that for `CN1CCN(C(c2ccccn2)c2cc(Cl)c3cccnc3c2O)CC1` (stereo not given), > 50 µM (inactive). For the compound `CCOC(=O)c1sc2nc3c(SCC(=O)O)cc(C(=O)c4cc(F)ccc4O)cn3c(=O)c2c1C`, the IC50 is > 50 µM (inactive).
